Paper PMC5982655, “Interaction of the New Monofunctional Anticancer Agent Phenanthriplatin With Transporters for Organic Cations” (Frontiers in Chemistry, 2018)

Columns and labels:
[1] = biological target: T1, hOCT1 (Homo sapiens, UniProt O15245); test: Inhibition of ASP+ uptake in HEK 293 cells expressing hOCT1; assay type: cell-based; details: HEK 293 hOCT1, 1 μM ASP+
T1 construct: expressed in transfected cells; gift of H. Koepsell
T1 sequence (O15245 1-554): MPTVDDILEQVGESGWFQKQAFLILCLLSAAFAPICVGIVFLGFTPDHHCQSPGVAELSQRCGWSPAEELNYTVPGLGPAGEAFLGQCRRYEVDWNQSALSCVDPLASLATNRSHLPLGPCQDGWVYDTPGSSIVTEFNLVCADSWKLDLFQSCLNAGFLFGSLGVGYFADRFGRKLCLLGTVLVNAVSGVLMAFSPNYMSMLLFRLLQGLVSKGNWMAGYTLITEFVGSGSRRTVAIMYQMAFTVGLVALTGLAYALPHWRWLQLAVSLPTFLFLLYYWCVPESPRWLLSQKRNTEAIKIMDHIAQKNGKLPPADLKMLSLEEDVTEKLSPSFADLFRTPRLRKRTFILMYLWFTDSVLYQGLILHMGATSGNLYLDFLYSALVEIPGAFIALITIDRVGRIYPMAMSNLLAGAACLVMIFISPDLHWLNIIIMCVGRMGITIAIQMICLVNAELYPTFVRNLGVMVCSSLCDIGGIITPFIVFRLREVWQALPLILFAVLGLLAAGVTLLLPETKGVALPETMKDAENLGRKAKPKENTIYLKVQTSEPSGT
Experimental: (§1) The interaction of phenanthriplatin with transporters for organic cations (OCT1-3, MATE1, and MATE2K) was investigated by measuring its effects on the uptake of the fluorescent organic cation 4-(4-dimethylamino)styryl-N-methylpyridinium (ASP^+). Microfluorometric measurements of ASP^+ uptake were performed with a fluorescence plate reader (Infinity 200, Tecan, Crailsheim, Germany; excitation at 465 nm, emission at 590 nm) as described previously for cultured HEK 293 cells (Wilde et al., [2009]). Before measurements, the culture medium in the wells of the 96 well microtiter plate containing HEK 293 cells was replaced by a HCO3- -free Ringer-like solution containing (in mM) NaCl 145, K2HPO4 1.6, KH2PO4 0.4, D-glucose 5, MgCl2 1, calcium gluconate 1.3, and pH adjusted to 7.4. Fluorescence was measured dynamically at 37°C in each well before and after ASP^+ addition to HCO3- -free Ringer-like solution, alone or together with increasing phenanthriplatin concentrations, and plotted versus time. ASP^+ (final concentration 1 or 10 μM for experiments with OCTs or MATEs, respectively) was added after the third sampling interval. Emission from the complete area of the well bottom was analyzed four times and averaged for each well. […] Background fluorescence was measured for each plate in wells with identical solutions containing no cells and subtracted from each well containing cells. Experiments were performed with cells from one passage of the same day with controls and test replicates in the same plate.
Data are presented as mean values ± SEM, with (n) referring to the number of wells. IC50 values defined as the concentration of platinum agent required to inhibit uptake of ASP^+ by 50% and EC50 values used to assess cell viability were obtained by sigmoidal concentration-response curve fitting using GraphPad Prism, Version 5.3 (GraphPad Software, San Diego, USA). […] For multiple comparisons, ANOVA with Bonferroni post-test was used. A P-value < 0.05 was considered statistically significant.

[2] = tested on: HEK 293 hOCT2 cells; test: MTT cell viability, HEK 293 hOCT2 cells; assay type: cell-based, human; details: 10 min
Experimental: (§2) A modified 3-(4,5-dimethylthiazol-2-yl)-2,5-diphenyltetrazolium bromide (MTT) assay (Mosmann, [1983]) was used to test the chemosensitivity of cells to phenanthriplatin and, in some experiments, to cisplatin by determining the glycolysis rate via the reduction of the yellow tetrazolium salt MTT to a purple formazan dye, as previously described (Wehe et al., [2014]). Briefly, after growing for 24 h in the incubator, cells expressing or not hOCT2, hMATE1, hMATE2 or Ctr1 were treated for 10 min with platinum derivatives. Control cells were incubated with drug-free complete cell culture medium. Afterwards, the medium was carefully removed and replaced by 200 μL of fresh complete cell culture medium. After incubation for another 24 h, 10 μL of MTT solution containing 5 mg/mL of the dye were added to each well, and the cells were again incubated for 3 h. The medium was then removed and 100 μL of lysis buffer containing 10% (w/v) sodium dodecyl sulfate and 40% (v/v) dimethylformamide was added to each well. The plates were shaken for 10 min to destroy the cell structure and dissolve the blue formazan dye (Furchert et al., [2007]; Wehe et al., [2014]). Finally, the absorbance was measured at 590 nm using an automated microtiter plate reader (Infinite M200; Tecan, Männedorf, Switzerland). The percentage of viable cells in the untreated controls was compared to that for the various treatments. Experiments carried out with DAOY and UW228 cells followed a similar protocol except that these cells were incubated for 24 h with phenanthriplatin.

[3] = tested on: HEK293 hMATE2K cells; test: MTT cell viability, HEK293 hMATE2K cells; assay type: cell-based, human; details: 100 μM phenanthriplatin
Experimental: as §2, with “Experiments carried out with DAOY and UW228 cells followed a similar protocol except that these cells were incubated for 24 h with phenanthriplatin.” left out

[4] = tested on: HEK293 hMATE1 cells; test: MTT cell viability, HEK293 hMATE1 cells; assay type: cell-based, human; details: HEK293 hMATE1, 100 μM phenanthriplatin
Experimental: as §2, with “Experiments carried out with DAOY and UW228 cells followed a similar protocol except that these cells were incubated for 24 h with phenanthriplatin.” left out

[5] = biological target: T2, hOCT3 (Homo sapiens, UniProt O75751); test: Inhibition of ASP+ uptake in HEK 293 cells expressing hOCT3; assay type: cell-based; details: HEK 293 hOCT3, 1 μM ASP+
T2 construct: expressed in transfected cells; gift of H. Koepsell
T2 sequence (O75751 1-556): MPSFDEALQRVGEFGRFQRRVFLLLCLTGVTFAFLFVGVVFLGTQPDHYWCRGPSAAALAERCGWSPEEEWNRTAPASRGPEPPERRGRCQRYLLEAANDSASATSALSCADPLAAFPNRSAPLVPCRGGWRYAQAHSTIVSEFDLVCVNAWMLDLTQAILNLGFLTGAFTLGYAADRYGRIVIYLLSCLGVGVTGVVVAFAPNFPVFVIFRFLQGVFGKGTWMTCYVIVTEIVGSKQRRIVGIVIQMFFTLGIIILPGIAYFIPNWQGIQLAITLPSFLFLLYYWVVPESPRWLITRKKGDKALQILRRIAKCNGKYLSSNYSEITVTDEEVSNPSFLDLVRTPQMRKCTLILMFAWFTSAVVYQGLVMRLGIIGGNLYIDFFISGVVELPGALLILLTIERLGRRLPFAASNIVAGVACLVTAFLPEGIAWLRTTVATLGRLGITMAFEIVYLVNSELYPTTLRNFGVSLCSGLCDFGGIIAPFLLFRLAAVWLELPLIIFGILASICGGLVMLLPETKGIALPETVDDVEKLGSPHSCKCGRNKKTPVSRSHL
Experimental: as §1, with “Experiments were performed with cells from one passage of the same day with controls and test replicates in the same plate.” left out

In the case of N.N.[Cl][Pt+].c1ccc2c(c1)cnc1ccccc12 [phenanthriplatin, cis-[Pt(NH3)2Cl(phenanthridine)]^+], the IC50 [1] is reported as 19 µM, the “logIC50 (logEC50) ± SEM for inhibition of ASP+ uptake” value [1] is reported as −4.72 ± 0.21 and the “Cell viability (MTT)” value ([2]; HEK 293 hOCT2, 10 μM phenanthriplatin + 100 μM cimetidine) is reported as “reduced upon co-incubation of phenanthriplatin with cimetidine”. The “Cell viability (MTT)” value ([2]; HEK 293 hOCT2, 10 μM phenanthriplatin) was “significant phenanthriplatin toxicity”, the “Cell viability (MTT)” value [3] was “induces significant cell toxicity” and the “Cell viability (MTT)” value [4] was “induces significant cell toxicity”. For the same molecule, the IC50 [5] was 21 µM and the “logIC50 (logEC50) ± SEM for inhibition of ASP+ uptake” value [5] was −4.67 ± 0.07.
